Read-outs that look alike come from different tables or passages of the source.
What was measured:
PRMT5/MEP50 = PRMT5/MEP50 (Homo sapiens, UniProt O14744); experiment: PRMT family radioactive assay; assay type: biochemical; settings: 60 minute SAM:Enzyme:Compound A preincubation
PRMT9 = PRMT9 (Homo sapiens, UniProt Q6P2P2); experiment: PRMT family radioactive assay; assay type: biochemical; settings: 60 minute SAM:Enzyme:Compound A preincubation
[1] = test system: 196 human cancer cell lines (Total); settings: percent of cell lines, 196 cell lines
Experimental: (§1) The growth of all cell lines was evaluated over time across a wide range of seeding densities to identify conditions that permitted proliferation throughout the entire 6-day assay. Cells were plated at the optimal seeding density and after overnight incubation, a 20-point 2-fold titration of compound was added and plates were incubated for 6 days. A replicate plate of cells was harvested at the time of compound addition to quantify the starting number of cells (T0). Values obtained after the 6 day treatment were expressed as a function of the T0 value and plotted against compound concentration. The T0 value was normalized to 100% and represents the number of cells at the time of compound addition. The data were fit with a 4 parameter equation to generate a concentration response curve and the growth IC50 (gIC50) was determined. The gIC50 is the midpoint of the ‘growth window’, the difference between the number of cells at the time of compound addition (To) and the number of cells after 6 days (DMSO control). The growth-death assay can be used to quantify the net population change, clearly defining cell death (cytotoxicity) as fewer cells compared to the number at the time of compound addition (T0).

786-O = settings: ccRCC, 6-day
Experimental: as §1

AML cell lines = settings: 10 cell lines
Experimental: as §1

G-401 = settings: G-401, Wilm's, 6-day
Experimental: as §1

HL-60 = settings: HL-60, AML subtype M3, 6-day
Experimental: as §1

HT144 = settings: HT144, melanoma, 6-day
Experimental: as §1

KASUMI- = settings: AML subtype M2, 6-day
Experimental: as §1

Kidney cancer cell lines = settings: percent of cell lines, 10 cell lines
Experimental: as §1

MDA-MB- = settings: melanoma, 6-day
Experimental: as §1

MOLM-16 = settings: MOLM-16, AML subtype M0, 6-day
Experimental: as §1

MV-4-11 = settings: MV-4-11, AML subtype M5, 6-day
Experimental: as §1

Melanoma cell lines = settings: 7 cell lines
Experimental: as §1

NSCLC cell lines = settings: percent of cell lines, 25 cell lines
Experimental: as §1

SHI-1 = settings: SHI-1, AML subtype M5, 6-day
Experimental: as §1

SK-MEL-2 = settings: SK-MEL-2, melanoma, 6-day
Experimental: as §1

SK-MEL-5 = settings: SK-MEL-5, melanoma, 6-day
Experimental: as §1

SKM-1 = settings: SKM-1, AML subtype M5, 6-day
Experimental: as §1

SW156 = settings: SW156, ccRCC, 6-day
Experimental: as §1

TF-1 = settings: TF-1, AML subtype M6, 6-day
Experimental: as §1

[2] = test system: arginine methylation (ADMA, MMA, SDMA) in Toledo cells; experiment: Western analysis of arginine methylation, time course; assay type: cell-based, human; settings: 0.4 μM
Experimental: (B) Representative western blots of arginine methylation marks. Regions quantified are denoted by black bars on the right of the gel.
As predicted, ADMA methylation decreased while MMA increased upon compound exposure (FIG. 12). […] Given the detection of numerous substrates with varying kinetics, and variability of ADMA levels among DMSO-treated samples, both the full lane and a prominent 45 kDa band were characterized to assess ADMA. Increases in MMA were apparent by 24 hours and near maximal by 48 hours while decreases in the 45 kDa ADMA band required 72-96 hours to achieve maximal effect. Increases in SDMA were apparent after 48 hours of compound exposure and continued to increase through 120 hours, consistent with the potential switch from conversion of MMA to ADMA by Type I PRMTs to SDMA by Type II PRMTs (FIG. 12).

OCI-Ly1 = test system: OCI-Ly1
Excerpt: (§2) FIG. 18: Propidium iodide FACS analysis of cell cycle in human lymphoma cell lines. […] Data represents the average±SEM of biological replicates, n=2.

Toledo = test system: Toledo
Excerpt: as §2

U2932 = test system: U2932
Excerpt: as §2

[3] = test system: human renal cell carcinoma xenografts (ACHN); settings: for Body weight Difference (vs. vehicle) / Regression: ACHN (ccRCC)
[4] = 600 QD mg/kg oral, arm terminated at day 31

Sequence of PRMT9 (Q6P2P2 whole entry): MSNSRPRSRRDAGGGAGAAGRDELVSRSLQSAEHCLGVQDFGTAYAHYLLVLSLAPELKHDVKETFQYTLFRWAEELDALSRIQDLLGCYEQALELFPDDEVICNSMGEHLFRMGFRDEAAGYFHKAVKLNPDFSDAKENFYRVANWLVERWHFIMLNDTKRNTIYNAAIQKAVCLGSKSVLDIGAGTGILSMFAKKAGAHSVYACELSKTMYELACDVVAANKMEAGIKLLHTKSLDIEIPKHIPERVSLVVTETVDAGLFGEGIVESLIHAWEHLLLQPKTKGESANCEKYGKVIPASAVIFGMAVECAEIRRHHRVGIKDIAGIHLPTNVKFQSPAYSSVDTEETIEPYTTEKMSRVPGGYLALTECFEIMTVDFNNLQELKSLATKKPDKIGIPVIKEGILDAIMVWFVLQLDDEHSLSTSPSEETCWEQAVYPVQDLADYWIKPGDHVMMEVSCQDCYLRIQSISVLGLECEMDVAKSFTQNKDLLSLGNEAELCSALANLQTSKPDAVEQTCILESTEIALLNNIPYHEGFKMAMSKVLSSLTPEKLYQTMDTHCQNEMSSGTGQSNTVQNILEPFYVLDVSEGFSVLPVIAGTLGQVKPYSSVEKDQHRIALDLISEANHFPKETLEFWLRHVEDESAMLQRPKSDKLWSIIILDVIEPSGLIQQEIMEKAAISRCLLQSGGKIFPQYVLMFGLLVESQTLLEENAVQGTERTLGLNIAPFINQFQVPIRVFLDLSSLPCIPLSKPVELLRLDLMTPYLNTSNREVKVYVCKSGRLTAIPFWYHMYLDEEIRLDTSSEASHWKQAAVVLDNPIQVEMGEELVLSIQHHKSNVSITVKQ
Sequence of PRMT5/MEP50 (O14744 whole entry): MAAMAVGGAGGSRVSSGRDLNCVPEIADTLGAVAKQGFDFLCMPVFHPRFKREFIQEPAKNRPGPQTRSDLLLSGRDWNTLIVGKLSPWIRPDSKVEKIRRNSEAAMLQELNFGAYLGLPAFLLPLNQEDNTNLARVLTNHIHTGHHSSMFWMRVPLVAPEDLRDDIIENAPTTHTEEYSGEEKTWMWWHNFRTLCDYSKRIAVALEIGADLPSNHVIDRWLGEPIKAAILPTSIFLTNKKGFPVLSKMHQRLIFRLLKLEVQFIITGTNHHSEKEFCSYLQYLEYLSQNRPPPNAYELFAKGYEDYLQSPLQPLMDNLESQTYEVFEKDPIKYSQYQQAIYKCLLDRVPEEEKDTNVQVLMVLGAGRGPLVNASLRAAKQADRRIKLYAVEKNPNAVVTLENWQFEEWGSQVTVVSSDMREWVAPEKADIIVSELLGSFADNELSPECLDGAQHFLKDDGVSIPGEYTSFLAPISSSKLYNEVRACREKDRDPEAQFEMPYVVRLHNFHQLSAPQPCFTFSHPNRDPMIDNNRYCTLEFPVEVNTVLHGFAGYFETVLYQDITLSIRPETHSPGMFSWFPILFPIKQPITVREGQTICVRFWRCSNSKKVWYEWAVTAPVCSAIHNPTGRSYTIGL
Sequence of PRMT5/MEP50 (Q9BQA1 whole entry partner): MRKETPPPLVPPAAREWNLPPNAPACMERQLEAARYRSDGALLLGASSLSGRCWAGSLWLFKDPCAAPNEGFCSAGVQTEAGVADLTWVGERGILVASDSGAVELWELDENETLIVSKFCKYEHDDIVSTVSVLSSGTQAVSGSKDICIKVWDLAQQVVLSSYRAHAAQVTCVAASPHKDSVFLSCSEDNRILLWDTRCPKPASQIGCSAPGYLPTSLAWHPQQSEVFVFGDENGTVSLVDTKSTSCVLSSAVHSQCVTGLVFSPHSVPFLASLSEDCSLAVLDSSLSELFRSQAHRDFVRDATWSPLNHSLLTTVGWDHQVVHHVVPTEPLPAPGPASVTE

CCOCC1(COCC)CCC(c2n[nH]cc2CN(C)CCNC)CC1 [Compound A]
inhibition of activity (PRMT5/MEP50): failed to inhibit | inhibition of activity (PRMT9): failed to inhibit | % gIC100 < 2 [1]: 4% | Ymin − T0 (786-O): 643.7 | number of cell lines with induced cytotoxicity (AML cell lines; 6-day proliferation assay): 5 | % Cytotoxic (AML cell lines; percent of cell lines): 50% | % gIC100 < 2 (AML cell lines; percent of cell lines): 0% | Ymin − T0 (G-401): 353.7 | gIC100 (HL-60): 6.38 ± 12.83 µM | Ymin − T0 (HL-60; negative = cell death): −33.4 | Ymin − T0 (HT144): 124.9 | gIC100 (HT144): 29.33 ± 0.00 µM | gIC100 (KASUMI-): 18.88 ± 10.55 µM | Ymin − T0 (KASUMI-; negative = cell death): −17.7 | % Cytotoxic (Kidney cancer cell lines): 0% | % gIC100 < 2 (Kidney cancer cell lines): 0% | Ymin − T0 (MDA-MB-): 19.1 | gIC100 (MDA-MB-): 29.33 ± 0.00 µM | gIC100 (MOLM-16): 9.69 ± 10.58 µM | Ymin − T0 (MOLM-16; negative = cell death): −68.6 | gIC100 (MV-4-11): 14.55 ± 4.27 µM | Ymin − T0 (MV-4-11; negative = cell death): 565.6 | Median gIC100 (Melanoma cell lines; 6-day proliferation): 29.33 µM | % Cytotoxic (Melanoma cell lines; percent of cell lines): 0% | % gIC100 < 2 (Melanoma cell lines; percent of cell lines): 0% | % Cytotoxic (NSCLC cell lines): 16% | % gIC100 < 2 (NSCLC cell lines): 0% | gIC100 (SHI-1): 29.33 ± 0.02 µM | Ymin − T0 (SHI-1; negative = cell death): 292.0 | Ymin − T0 (SK-MEL-2): 35.9 | gIC100 (SK-MEL-2): 22.37 µM | Ymin − T0 (SK-MEL-5): 31.8 | gIC100 (SK-MEL-5): 27.09 ± 3.92 µM | gIC100 (SKM-1): 11.61 ± 5.52 µM | Ymin − T0 (SKM-1; negative = cell death): −19.1 | Ymin − T0 (SW156): 346.7 | gIC100 (TF-1): 29.33 ± 0.00 µM | Ymin − T0 (TF-1; negative = cell death): 788.1 | time to maximal decrease of 45 kDa ADMA band [2]: 72 to 96 h | time to near maximal increase in MMA [2]: ≤ 48 h | change in ADMA methylation ([2]; up to 120 hours): decreased | change in MMA ([2]; up to 120 hours): increased | change in SDMA ([2]; up to 120 hours): increase | concentration giving accumulation of cells in sub-G1 (OCI-Ly1): 10 µM | concentration giving accumulation of cells in sub-G1 (Toledo; after 3 days): ≥ 1000 nM | concentration giving increase in sub-G1 population (Toledo; by day 7): ≥ 100 nM | concentration giving accumulation of cells in sub-G1 (U2932): 10 µM | body weight loss ([3]; 600 mg/kg daily): Significant body weight loss | Body weight Difference (vs. vehicle) ([3]; 150 QD mg/kg oral, Day 59): −3% | Body weight Difference (vs. vehicle) ([3]; 300 QD mg/kg oral, Day 59): −4% | Regression ([3]; 300 QD mg/kg oral, Day 59): 2% | Body weight Difference (vs. vehicle) ([3]; 450 QD mg/kg oral, Day 59): −7% | Regression ([3]; 450 QD mg/kg oral, Day 59): 15% | Body weight Difference (vs. vehicle) [3, 4]: −17% | Regression [3, 4]: 6% | doses at which regressions were observed ([3]; ACHN xenograft, oral daily): ≥ 300 mg/kg
